{
  "source": "patent US20160144021A1",
  "about": "“Vaccine Composition And Method Of Use” (MEDIMMUNE, LLC, priority 2013, published 2016)",
  "key": {"[1]": {"system": "RSV-F derived MHC II (I-Ed)-binding peptides", "assay": "F-specific CD4 T-cell cytokine profiling of restimulated splenocytes, naive BALB/c mice", "format": "in vivo", "conditions": "splenocytes 4 days post challenge, 72 h restimulation"}, "[2]": {"assay": "Lung histopathology after RSV challenge, naive BALB/c mice", "format": "in vivo", "conditions": "H&E lung sections day 4 post RSV challenge", "description": "Lung sections (5 micron) were prepared using a microtome from paraffin-embedded formalin-fixed lung lobes harvested at day 4 post RSV challenge. Sections stained with hematoxylin and eosin were digitally scanned and examined by a licensed pathologist. Lung sections were evaluated for pulmonary lesion characteristics such as presence of bronchiolar hyperplasia, alveolitis, eosinophilic infiltrate and infiltration of the peribronchiolar/perivascular spaces."}, "[3]": {"system": "RSV A2", "assay": "Lung and nose viral titers by plaque assay after RSV challenge, naive cotton rats", "format": "in vivo", "conditions": "0.3 μg RSV sF IM, 4 days post challenge"}, "[4]": {"system": "RSV A2", "assay": "Serum RSV neutralizing titers, naive cotton rats", "format": "in vivo", "conditions": "day 42, naive cotton rats", "description": "RSV neutralizing antibody titers in heat-inactivated mouse sera at indicated timepoints were measured using a GFP-tagged RSV A2 micro-neutralization assay as previously described (Bernstein D I, et al. (2012) Phase 1 study of the safety and immunogenicity of a live, attenuated respiratory syncytial virus and parainfluenza virus type 3 vaccine in seronegative children. Pediatr Infect Dis J 31: 109-114). Briefly, confluent Vero cell monolayers were infected with 500 PFU of virus alone or virus pre-mixed with serially diluted serum samples, then incubated at 33° C. and 5% CO2 for 22 hrs. Plates were washed of free virus and GFP fluorescent viral foci were enumerated using the IsoCyte image scanner (Blueshift, Sunnyvale, Calif.).\nCotton rats are a well established model for RSV studies and are often used in the preclinical evaluation of potential RSV vaccine candidates. To confirm the immune profile of GLA-SE adjuvanted RSV sF vaccine in a second RSV challenge model, individual cotton rats were administered the same RSV sF subunit vaccines at similar doses used for mice. RSV sF at 0.3 μg without adjuvant or adjuvanted with GLA, SE, GLA-SE, or alum was given intramuscularly at days 0 and 22."}, "[5]": {"system": "RSV A2", "assay": "RSV microneutralization of sera, highly (2x) RSV seropositive BALB/c mice", "format": "in vivo", "conditions": "very small amounts of antigen", "description": "(§1) One hundred three female BALB/c mice (Charles River), ages 6-8 weeks old, were divided into 13 groups. Group 1 had 7 mice and groups 2 through 13 had 8 mice. Following anaesthetization groups 1 through 12 were dosed with 1×10^6 plaque forming units (PFU) in 100 μL of live RSV via an intranasal (IN) route on Day 0 and Day 35. Group 13 was not exposed to RSV. On Day 56, groups 1 through 11 were immunized with placebo (PBS) or vaccine article via an intramuscular (IM) route following anesthesia with isoflurane. The vaccine articles were formulated in a total of 100 μL with 50 μL given in each hind limb. Group 12 was anesthetized with isoflurane and immunized with 1×10^6 PFU in 100 μL of live RSV via an IN route. […] Sera were obtained from retro orbital blood collection at study days 0, 28, 56 70 and 84, separated from whole blood and stored at −20° C. until evaluated. Spleens from 4 animals in each group were harvested for T cell assays on Day 67, 11 days post immunization, or at day 88, 4 days post challenge. Lung cytokines quantified at 4 days after challenge in individual lung homogenates by luminex assay (Milipore)."}, "[6]": {"system": "IFNγ, IL-5, IL-13, eotaxin, RANTES", "assay": "Lung cytokines 4 days post challenge, highly seropositive BALB/c mice", "description": "as §1\nMouse cytokine/chemokine multiplex kits designed to include IFNgamma, IL-5, IL-13, IL-17 and eotaxin (Millipore, Billerica, Mass.) were used to evaluate lung homogenates. Lung homogenates were clarified by centrifugation prior to use. Assays were performed following manufacturer's instructions and plates were analyzed on a Luminex reader (Bio-Rad, Hercules, Calif.)."}, "[7]": {"system": "RSV A2", "assay": "RSV A2-GFP microneutralization of sera, naive Sprague Dawley rats", "format": "in vivo", "conditions": "Day 22, 22 days post Dose 1; RSV sF 10 and 100 μg groups", "description": "(§2) In a subsequent study, the immunogenicity and protection following a prime-boost regimen of RSV-SF was evaluated. 40 naive female Sprague Dawley rats were divided into designated vaccine cohorts of 5-6 animals per cohort. Briefly, test groups were given RSV sF (10 μg or 100 μg per animal) without adjuvant or RSV sF (10 μg or 100 μg per animal) with GLA-SE (2.5 μg in 2% SE). Negative control groups were dosed with placebo (PBS buffer) or adjuvant GLA-SE (2.5 μg/2%) without RSV sF. […] Groups 1-6 were inoculated IM with 500 μL of designated vaccine article on Day 0 and Day 22, while Group 7 was inoculated IN with 200 μL of RSV A2 virus on day 0 only. […] Rats were euthanized at 4 days post challenge on Day 46, the day of peak viral replication determined from Study 1. Lungs (excluding 1 lobe which was formalin-fixed) and noses were homogenized and quantified for viral titers.\nSerological responses to vaccination were evaluated at 6 hours post immunization, D22, and D42 for all animals and at Day 14 for a subset of 3 animals per group. […] Serum obtained 6 hours post-immunization was evaluated for cytokine titers by multiplexed ELISA. Serum from Days 14, 22, and 42 were measured for total anti-F IgG ELISA endpoint dilution titers. Day 42 serum was evaluated for the specific contribution of IgG1, IgG2a, and IgG2b anti-F responses by ELISA endpoint dilution titers. […]"}, "[8]": {"system": "RSV A2", "assay": "Lung and nose RSV titers after challenge, vaccinated Sprague Dawley rats", "format": "in vivo", "conditions": "10 or 100 μg RSV sF, 4 days post challenge", "description": "as §2"}, "[9]": {"system": "RSV F peptide pool of overlapping 15-mers", "assay": "F-specific IFNγ ELISPOT of PBMC, cynomolgus monkeys", "format": "in vivo", "description": "To determine whether immunization with sF formulated with GLA-SE enhanced an F-specific T cell response, F-specific IFNγ T cell responses were measured by ELISPOT following restimulation with a peptide pool of overlapping 15-mers derived from the RSV F protein sequence. […] While the number of T cells in the sF+GLA-SE group decreased over time, one animal still met the definition of a positive responder out to day 169. At Day 169, 5 months post vaccination, a booster vaccination was given. […] In comparison, 0 of 4 monkeys in the sF alone group responded with an increase in IFNγ secreting F-specific T cells (mean 5 SFC/million)."}},
  "data": [
    {"substance": "RSV sF: RSV soluble F protein, amino acids 1-524 of the RSV A2 F sequence lacking the transmembrane domain, given without adjuvant", "values": [
      {"measurement": "F-specific CD4 T-cell cytokine production profile", "setting": "[1]", "value": "Th2-type response characterized by IL-5 and IL-13 cytokines"},
      {"measurement": "pulmonary inflammation / lesion scores", "setting": "[2]", "value": "increased pulmonary lesion scores"},
      {"measurement": "mean RSV titer in the lungs", "setting": "[3]", "value": 5.4, "unit": "log10 pfu/gram"},
      {"measurement": "mean RSV titer in the nose", "setting": "[3]", "value": 4.9, "unit": "log10 pfu/gram"},
      {"measurement": "RSV neutralizing titers (mean)", "setting": "[4]", "value": 4.3, "unit": "log2"},
      {"measurement": "neutralization level lower than that of the highest adjuvanted RSV sF dose of 50 μg", "setting": "[5]", "value": "approximately 6 fold"},
      {"measurement": "lung RANTES following RSVA2 exposure", "setting": "[6]; 4 days post challenge", "value": "increased with increasing amounts of RSV sF"},
      {"measurement": "lung eotaxin and IL-13 upon RSV challenge", "setting": "[6]; 4 days post challenge", "value": "did not induce eotaxin or IL-13 levels higher than any of the other groups"},
      {"measurement": "lung IL-5 in response to RSV challenge", "setting": "[6]; day 88, 4 days post challenge", "value": "did not set up mice to induce IL-5"},
      {"measurement": "serum neutralizing titers (log2 GMT IC50)", "setting": "[7]", "value": "not significantly different from placebo"},
      {"measurement": "animals per group with titers below the limit of detection", "setting": "[8]", "value": "1-2"},
      {"measurement": "mean F-specific IFNγ ELISPOT response", "setting": "[9]; Day 42", "value": 8, "unit": "SFC/million PBMC"},
      {"measurement": "animals with positive F-specific IFNγ ELISPOT response", "setting": "[9]; Day 42, ≥50 SFC/million increase and 4-fold rise from day −7", "value": "0 of the 4"},
      {"measurement": "animals with positive F-specific IFNγ ELISPOT response", "setting": "[9]; Day 183", "value": "0 of 4"},
      {"measurement": "mean F-specific IFNγ ELISPOT response", "setting": "[9]; Day 183", "value": 5, "unit": "SFC/million"}
    ]}
  ]
}
